Experimental data from the supplement of paper PMC11061612.

Tests used:
Experiment in all cases: combination Emax (second highest fraction inhibited in the dose matrix, 72 h); higher = more inhibition; extreme values may be limits of the assay
[1] = test system: SW684 (Other Solid Carcinomas)
Method in brief: (§1)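 Cell lines in DMEM/F12 or RPMI with 10% FBS were plated in 1536-well plates, held 24 hours at 37°C, 5% CO2, then given two-drug dose matrices for 72 hours (DMSO typically 0.2%). Viability was read by CellTiter-Glo 2.0 luminescence and scaled as inhibition from 0 (vehicle wells) to 1 (blank wells). Combination Emax is the second-highest inhibition in the matrix; Bliss excess is observed combination effect minus expected EA + EB − EA·EB, EA and EB being single-agent effects.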

[2] = test system: Caov-3 (Ovarian Carcinoma)
Method in brief: as §1

[3] = test system: RPMI-8866 (Chronic Myelogenous Leukemia)
Method in brief: as §1

[4] = test system: SJRH30 (Rhabdomyosarcoma)
Method in brief: as §1

[5] = test system: RT4 (Bladder Carcinoma)
Method in brief: as §1

[6] = test system: LAMA-84 (Chronic Myelogenous Leukemia)
Method in brief: as §1

[7] = test system: HSC-3 (Oral Cavity Carcinoma)
Method in brief: as §1

[8] = test system: SK-MM-2 (Plasma Cell Myeloma)
Method in brief: as §1

[9] = test system: LOUCY (T-Lymphoblastic Leukemia)
Method in brief: as §1

[10] = test system: JHH-1 (Hepatocellular Carcinoma)
Method in brief: as §1

[11] = test system: FLO-1 (Esophageal Adenocarcinoma)
Method in brief: as §1

[12] = test system: OV-90 (Ovarian Carcinoma)
Method in brief: as §1

[13] = test system: AsPC-1 (Pancreatic Carcinoma)
Method in brief: as §1

[14] = test system: HTC-C3 (Thyroid Gland Carcinoma)
Method in brief: as §1

[15] = test system: NCI-H1755 (Lung Adenocarcinoma)
Method in brief: as §1

[16] = test system: ES-2 (Ovarian Carcinoma)
Method in brief: as §1

[17] = test system: 786-0 (Kidney Carcinoma)
Method in brief: as §1

[18] = test system: Calu-6 (Non-Small Cell Lung Carcinoma)
Method in brief: as §1

[19] = test system: OCI-AML5 (Acute Myeloid Leukemia)
Method in brief: as §1

[20] = test system: NCI-H810 (Non-Small Cell Lung Carcinoma)
Method in brief: as §1

Row | Compound | combination Emax [1] | combination Emax [2] | combination Emax [3] | combination Emax [4] | combination Emax [5] | combination Emax [6] | combination Emax [7] | combination Emax [8] | combination Emax [9] | combination Emax [10] | combination Emax [11] | combination Emax [12] | combination Emax [13] | combination Emax [14] | combination Emax [15] | combination Emax [16] | combination Emax [17] | combination Emax [18] | combination Emax [19] | combination Emax [20]
1 | C=CCn1c(=O)c2cnc(Nc3ccc(N4CCN(C)CC4)cc3)nc2n1-c1cccc(C(C)(C)O)n1 [AZD1775] + O=C(c1cc(Cc2n[nH]c(=O)c3ccccc23)ccc1F)N1CCN(C(=O)C2CC2)CC1 [Olaparib] (first compound max 1 µM, partner max 10 µM) | 0.249 | 0.716 | 0.977 | 0.777 | 0.283 | 0.943 | 0.268 | 0.705 | 1 | 0.328 | 0.878 | 0.559 | 0.29 | 0.365 | 0.832 | 0.622 | 0.543 | 0.708 | 0.953 | 0.926
2 | C=CCn1c(=O)c2cnc(Nc3ccc(N4CCN(C)CC4)cc3)nc2n1-c1cccc(C(C)(C)O)n1 [AZD1775] + C[C@@H]1COCCN1C2=NC(=NC(=C2)C3(CC3)[S@](=N)(=O)C)C4=C5C=CNC5=NC=C4 [AZD6738] (first compound max 1 µM, partner max 10 µM) | 0.474 | 0.762 | 0.989 | 0.962 | 0.623 | 0.993 | 0.63 | 0.705 | 1 | 0.642 | 0.924 | 0.526 | 0.475 | 0.882 | 0.899 | 0.841 | 0.888 | 0.808 | 0.981 | 0.975
3 | CC1(C)CCC(CN2CCN(c3ccc(C(=O)NS(=O)(=O)c4ccc(NCC5CCOCC5)c([N+](=O)[O-])c4)c(Oc4cnc5[nH]ccc5c4)c3)CC2)=C(c2ccc(Cl)cc2)C1 [Venetoclax] + Cc1cc2ncnn2cc1Nc1ncc2c(n1)n(C1CCOCC1)c(=O)n2C [AZD7648] (first compound max 1 µM, 7x7, partner max 10 µM) | 0.273 | 0.528 | 0.316 | 0.187 | 0.357 | 0.299 | 0.207 | 1 | 1 | 0.199 | 0.249 | 0.298 | 0.246 | 0.205 | 0.534 | 0.249 | 0.136 | 0.275 | 0.943 | 0.221
4 | Cc1c2c(nn1C)CSCc1cc(n(C)n1)CSc1cc(c3ccccc3c1)OCCCc1c(C(=O)O)n(C)c3c-2c(Cl)ccc13 [AZD5991] + C1CN(CCC1(C(=O)N[C@@H](CCO)C2=CC=C(C=C2)Cl)N)C3=NC=NC4=C3C=CN4 [Capivasertib] (first compound max 1 µM, 7x7, partner max 3 µM) | 0.402 | 0.307 | 0.52 | 0.669 | 0.22 | 0.189 | 0.728 | 0.325 | 0.926 | 0.373 | 0.347 | 0.241 | 0.161 | 0.179 | 0.338 | 0.196 | 0.44 | 0.192 | 1 | 0.286
5 | Cc1c2c(nn1C)CSCc1cc(n(C)n1)CSc1cc(c3ccccc3c1)OCCCc1c(C(=O)O)n(C)c3c-2c(Cl)ccc13 [AZD5991] + CN(C)CCCOc1ccc(-c2ccc3ncc4c(c3c2)n(C2CCOCC2)c(=O)n4C)cn1 [AZD0156] (first compound max 1 µM, 7x7, partner max 1 µM) | 0.236 | 0.39 | 0.668 | 0.544 | 0.289 | 0.177 | 0.873 | 0.355 | 0.638 | 0.48 | 0.36 | 0.209 | 0.24 | 0.179 | 0.361 | 0.313 | 0.251 | 0.282 | 1 | 0.474
6 | CC1(C)CCC(CN2CCN(c3ccc(C(=O)NS(=O)(=O)c4ccc(NCC5CCOCC5)c([N+](=O)[O-])c4)c(Oc4cnc5[nH]ccc5c4)c3)CC2)=C(c2ccc(Cl)cc2)C1 [Venetoclax] + CN(C)CCCOc1ccc(-c2ccc3ncc4c(c3c2)n(C2CCOCC2)c(=O)n4C)cn1 [AZD0156] (first compound max 1 µM, 7x7, partner max 1 µM) | 0.284 | 0.59 | 0.0785 | 0.177 | 0.189 | 0.339 | 0.233 | 1 | 1 | 0.214 | 0.339 | 0.3 | 0.193 | 0.205 | 0.654 | 0.22 | 0.195 | 0.199 | 0.901 | 0.121
